From patent US11938228B2, “Particle-based multi-layer therapeutic delivery device and method” (Privo Technologies, Inc., priority 2017, dated 2024)

Assays:
[1] = release profile of encapsulated agent from chitosan particles (atomic absorption spectrometry); assay type: physicochemical; details: over 60 hours; particles with average diameter 500 to 2000 nm; detection by AAS
Excerpt: FIG. 1 is a graph showing the release profile of one embodiment of particles having an average diameter in the range of 500 to 2000 nm which may be included within a multi-layered device according to embodiments of the present invention. […] Cisplatin was used for this experiment due to its use in the treatment of oral cancer and its ease of detection via atomic absorption spectrometry (AAS).
FIG. 1 is a graph showing the release profile of example particles having an average diameter in the range of 500 to 2000 nm. […] Cisplatin was used for this experiment due to its use in the treatment of oral cancer and its ease of detection via atomic absorption spectrometry (AAS).

[2] = permeation of fluorescent dye from two-layer device into buccal tissue (fluorescence microscopy); assay type: in vitro ADME; details: lamb buccal tissue, multi-layer device
Excerpt: FIG. 2 is an image of an example multi-layered device according to example embodiments of the present invention. The device features two layers: one top layer including fluorescein isothiocyanate (FITC), a fluorescent dye which fluoresces green when examined under a fluorescent microscope, and one bottom layer including cyanine 5 (Cy5), a fluorescent dye which fluoresces red when examined under a fluorescent microscope.
FIGS. 5A-5C show three images taken from lamb buccal tissue at different time points.
In another representative embodiment, a multi-layered device may be used for the delivery of multiple agents over a prolonged period of time (FIG. 4, FIG. 5). If the example of mucositis is again used, multiple layers may include a pain mitigator in free form, a pain mitigator encapsulated within particles and an agent for the treatment of mucositis encapsulated within particles. The initial freeform layer is able to provide immediate pain relief, and the subsequent particle-encapsulated layers are capable of delivering particles beneath the tissue, where they further release their agents over a period of days, providing longer-term pain relief and treatment. FIG. 4 and FIG. 5 illustrate this effect. Fluorescence was used in order to provide detection. […]

Q: For `N.N.[Cl][Pt][Cl]` [cisplatin], which “cisplatin released from particles” value [1] is on record?
A: 45%

Q: For fluorescein isothiocyanate [FITC], which permeation into tissue ([2]; after 30 minutes) is on record?
A: beginning to permeate the tissue

Q: And the permeation into tissue ([2]; after 1 hour)?
A: permeating deeper into the tissue
